We go through 21 molecules from patent US9370519B2, “Macrocyclic FLT3 kinase inhibitors” (Oncodesign S.A., priority 2011, dated 2016).

Usually IC50 stands for the concentration needed to halve the response being measured. A lower IC50 goes with higher potency. One may read the melting point as the temperature, or range, at which the solid turns liquid.

In one series the target is T1, Flt3 (h) (Homo sapiens, UniProt P36888).
T1 sequence (P36888 27-993): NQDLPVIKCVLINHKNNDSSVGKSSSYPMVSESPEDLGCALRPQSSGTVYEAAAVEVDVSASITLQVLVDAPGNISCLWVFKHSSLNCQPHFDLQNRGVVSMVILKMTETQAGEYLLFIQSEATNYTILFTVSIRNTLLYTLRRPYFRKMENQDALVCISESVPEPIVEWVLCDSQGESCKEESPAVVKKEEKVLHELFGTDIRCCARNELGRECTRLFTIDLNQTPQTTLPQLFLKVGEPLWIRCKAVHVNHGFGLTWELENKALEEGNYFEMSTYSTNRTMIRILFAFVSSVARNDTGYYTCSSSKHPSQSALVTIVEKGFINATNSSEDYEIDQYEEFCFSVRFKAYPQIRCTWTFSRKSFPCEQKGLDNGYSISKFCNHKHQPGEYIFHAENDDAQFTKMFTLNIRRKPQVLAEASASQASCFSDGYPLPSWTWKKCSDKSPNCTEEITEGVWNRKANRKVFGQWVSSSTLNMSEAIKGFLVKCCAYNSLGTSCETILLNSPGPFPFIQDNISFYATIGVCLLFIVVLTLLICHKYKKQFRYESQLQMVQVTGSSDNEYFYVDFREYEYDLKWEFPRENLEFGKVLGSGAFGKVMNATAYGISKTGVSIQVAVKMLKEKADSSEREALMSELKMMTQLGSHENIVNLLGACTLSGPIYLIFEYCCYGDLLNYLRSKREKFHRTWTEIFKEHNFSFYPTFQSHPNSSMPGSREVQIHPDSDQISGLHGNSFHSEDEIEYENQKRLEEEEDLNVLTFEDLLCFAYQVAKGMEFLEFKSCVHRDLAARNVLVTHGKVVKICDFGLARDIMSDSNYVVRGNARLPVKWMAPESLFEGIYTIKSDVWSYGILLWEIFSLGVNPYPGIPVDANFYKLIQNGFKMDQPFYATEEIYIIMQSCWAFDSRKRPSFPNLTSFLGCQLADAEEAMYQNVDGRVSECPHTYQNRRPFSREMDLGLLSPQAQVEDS
Nature of the series: FLT3 in vitro peptide-based kinase assay, Protocol 1. Type of series: biochemical. As to the method:
The inhibition of FLT3 kinase was assessed using FLT3 recombinant protein in an in vitro peptide-based kinase assay.
In a final reaction volume of 25 μL, Flt3 (h) (5-10 mU) is incubated with 8 mM MOPS pH 7.0, 0.2 mM EDTA, 50 μM EAIYAAPFAKKK, 10 mM MgAcetate and [g-33P-ATP] (specific activity approx. 500 cpm/pmol, concentration as required). The reaction is initiated by the addition of the MgATP mix. After incubation for 40 minutes at room temperature, the reaction is stopped by the addition of 5 μL of a 3% phosphoric acid solution. 10 μL of the reaction is then spotted onto a P30 filtermat and washed three times for 5 minutes in 75 mM phosphoric acid and once in methanol prior to drying and scintillation counting.

For the next series, the target named is T2, FLT3 wt (Homo sapiens, UniProt P36888).
T2 construct: purchased Invitrogen Corporation
T2 sequence (P36888 27-993): T1 sequence (P36888 27-993)
Nature of the series: radiometric protein kinase assay (33PanQinase Activity Assay) FLT3 wt, Protocol 2. In kind it is biochemical. Conditions: ATP 3 μM. How it is done: A radiometric protein kinase assay (33PanQinase® Activity Assay) was used for measuring the kinase activity. All kinase assays were performed in 96-well FlashPlates™ from PerkinElmer (Boston, Mass., USA) in a 50 μl reaction volume. The reaction cocktail was pipetted in four steps in the following order: • 20 μl of assay buffer (standard buffer) • 5 μl of ATP solution (in H2O) • 5 μl of test compound (in 10% DMSO) • 10 μl of substrate/10 μl of enzyme solution (premixed)
The assay for FLT3 wt contains 70 mM HEPES-NaOH pH 7.5, 3 mM MgCl2, 3 mM MnCl2, 3 μM Na-orthovanadate, 1.2 mM DTT, ATP (3 μM), [γ-33P]-ATP (approx. 5×1005 cpm per well), protein kinase FLT3 wt (6.1 nM) and substrate (poly(Ala,Glu,Lys,Tyr)6:2:5:1), 0.125 μg/50 μl).
The kinases are obtained from Invitrogen Corporation.
The reaction cocktails were incubated at 30° C. for 60 minutes. The reaction was stopped with 50 μl of 2% (v/v) H3PO4, plates were aspirated and washed two times with 200 μl 0.9% (w/v) NaCl. Incorporation of 33Pi was determined with a microplate scintillation counter.

As to `CC(C)N1CCNc2ccn3ncc(c3n2)-c2cccc(c2)OCC1` [Compound 6], the melting point was above 300 °C. The molecule also yielded an IC50 on Flt3 (h) below 0.1 µM.
The corresponding values for `c1cc2cc(c1)-c1cnn3ccc(nc13)NCCN(CCN1CCOCC1)CCO2` [Compound 5] are above 300 °C and below 0.1 µM.
`CN(C)CCNC(=O)N1CCNCCOc2cccc(c2)-c2cnn3ccc1nc23` [Compound 11] registered a melting point above 300 °C. The IC50 against Flt3 (h) was 0.1 to 1 µM.
In the case of `O=C(O)c1ccc2cc1OCCOCCNc1ccn3ncc-2c3n1` [Compound 1], the melting point was above 300 °C. This molecule had an IC50 at Flt3 (h) below 0.1 µM.
`CN1CCC(C(=O)N2CCOCCNc3ccn4ncc(c4n3)-c3cccc2c3)CC1` [Compound 2] came in with a melting point above 300 °C. For the same molecule, on Flt3 (h), the IC50 was above 1 µM.
`Fc1cc2cc(c1)-c1cnn3ccc(nc13)NCCOCCCO2` [Compound 35]: the melting point is 234.9 °C.
As for `O=C(NCCCN1CCCC1)N1CCNCCOc2cccc(c2)-c2cnn3ccc1nc23` [Compound 10], the IC50 against Flt3 (h) was below 0.1 µM.
Regarding `OCc1ccc2cc1OCCOCCNc1ccn3ncc-2c3n1` [Compound 12], the melting point was above 300 °C. In addition, the IC50 on Flt3 (h) is below 0.1 µM.
`O=C1NCCN(C2CC2)CCN(CCO)c2ccn3ncc(c3n2)-c2cccc1c2` [Compound 15] displayed an IC50 against Flt3 (h) of 0.1 to 1 µM.
In the case of `O=C1CNCCNc2ccn3ncc(c3n2)-c2cccc(c2)N1` [Compound 31], the IC50 against FLT3 wt was above 1 µM.
Same read-out and setting: to `COc1ccc2cc1OCCNCCNc1ccn3ncc-2c3n1` [Compound 32] belongs 0.1 to 1 µM; to `O=C1CNCCNc2ccn3ncc(c3n2)-c2cccc(c2)CN1` [Compound 34], above 1 µM.
The molecule `c1cc2cc(c1)-c1cnn3ccc(nc13)OCCN(CCCN1CCCC1)CCO2` [Compound 13] had a melting point above 300 °C. In addition, the IC50 against Flt3 (h) was above 1 µM.
Take `c1cc2cc(c1)-c1cnn3ccc(nc13)NCCCNCCO2` [Compound 33]: at FLT3 wt, the IC50 fell in the range of 0.1 to 1 µM.
Molecule `O=C(NCCF)c1ccc2cc1OCCOCCNc1ccn3ncc-2c3n1` [Compound 20] gave a melting point above 300 °C.
In the case of `O=C1NCCN(CCO)CCNc2ccn3ncc(c3n2)-c2cccc1c2` [Compound 8], the melting point was found to be 283.9 °C. This molecule showed an IC50 against Flt3 (h) below 0.1 µM.
In turn, `O=C1NCCNCCN(CCO)c2ccn3ncc(c3n2)-c2cccc1c2` [Compound 14] registered an IC50 on Flt3 (h) above 1 µM.
In turn, `O=C1NCCCNc2ccn3ncc(c3n2)-c2cccc(c2)N1` [Compound 3] returned a melting point above 300 °C. The molecule also came in with an IC50 against Flt3 (h) below 0.1 µM.
For `NC(=O)c1ccc2cc1OCCNCCNc1ccn3ncc-2c3n1` [Compound 4] the same measures were above 300 °C and below 0.1 µM.
For `CN1CCNC(=O)c2cccc(c2)-c2cnn3ccc(nc23)NCC1` [Compound 9] the same measures were 287.6 °C and 0.1 to 1 µM.
The corresponding values for `O=C1c2cccc(c2)-c2cnn3ccc(nc23)NCCNCCN1CCO` [Compound 7] are 271.6 °C and 0.1 to 1 µM.
